Experimental data as given in US8030498B2, “Benzoylpyrazole compounds and herbicides containing them” (Ishihara Sangyo Kaisha, Ltd., priority 2005, dated 2011).

Columns and labels:
[1] = test system: crabgrass; assay: Test Example 2: soil application on the day after sowing, growth inhibition rate, crabgrass; assay type: in vivo, Digitaria sanguinalis L.; details: 250 g/ha active ingredient, observed on 19th to 24th day
Text: (§1) Upland field soil was put into a 1/170,000 hectare pot, and seeds of various plants (barnyardgrass, crabgrass, greenfoxtail, redroot pigweed, prickly sida, velvetleaf, rice, wheat, corn and soybean) were sown. On the day after sowing, wettable powders or emulsifiable concentrates of the compounds of the present invention prepared in accordance with a conventional preparation method, were weighed so that the active ingredients became the prescribed amounts, and diluted with water in an amount corresponding to 500 liter per 1 hectare, followed by soil application with a small sprayer. On the 19th to 24th day after the application, the state of growth of the respective plants was visually observed, and the herbicidal effect was evaluated in accordance with a growth inhibition rate (%) of from 0 (equivalent to the non-treated area) to 100% (complete kill).

[2] = test system: wheat (Triticum spp.); assay: Test Example 1: foliar treatment, growth inhibition rate, wheat; assay type: in vivo; details: visually observed 17th to 23rd day after application
Text: (§2) Upland field soil was put into a 1/170,000 hectare pot, and seeds of various plants were sown. When the respective plants reached predetermined leaf stage ((1) barnyardgrass (Echinochloa crus-galli L.); 0.8 to 2.5 leaf stage, (2) crabgrass (Digitaria sanguinalis L.): 0.5 to 3.0 leaf stage, (3) greenfoxtail (Setaria viridis L.): 1.0 to 3.0 leaf stage, (4) redroot pigweed (Amaranthus retroflexus L.): cotyledon stage to 2.0 leaf stage, (5) prickly sida (Sida spinosa L.): cotyledon stage to 1.1 leaf stage, (6) velvetleaf (Abutilon theophrasti MEDIC.): cotyledon stage to 1.5 leaf stage, (7) rice (Oryza sativa L.): 1.0 to 2.5 leaf stage, (8) wheat (Triticum spp.): 1.7 to 3.4 leaf stage, (9) corn (Zea mays L.): 2.0 to 3.5 leaf stage, and (10) soybean (Glycine max Merr.): primary leaf stage to 0.3 leaf stage), wettable powders or emulsifiable concentrates of the compounds of the present invention prepared in accordance with a conventional preparation method, were weighed so that the active ingredients became the prescribed amounts, and diluted with water in an amount corresponding to 500 liter per 1 hectare. 0.1 vol % of an agricultural spreader was further added to the respective diluted liquids, followed by foliar treatment with a small sprayer.
(§3) On the 17th to 23rd day after application, the state of growth of the respective plants was visually observed, and the herbicidal effect was evaluated in accordance with a growth inhibition rate (%) of 0 (equivalent to the non-treated area) to 100% (complete kill).

[3] = test system: greenfoxtail (Setaria viridis L.); assay: Test Example 1: foliar treatment, growth inhibition rate, greenfoxtail; assay type: in vivo; details: visually observed 17th to 23rd day after application
Text: as §2, §3

[4] = test system: redroot pigweed; assay: Test Example 2: soil application on the day after sowing, growth inhibition rate, redroot pigweed; assay type: in vivo, Amaranthus retroflexus L.; details: 250 g/ha active ingredient, observed on 19th to 24th day
Text: as §1

[5] = test system: corn; assay: Test Example 2: soil application on the day after sowing, growth inhibition rate, corn; assay type: in vivo, Zea mays L.; details: 250 g/ha active ingredient, observed on 19th to 24th day
Text: as §1

[6] = test system: velvetleaf; assay: Test Example 2: soil application on the day after sowing, growth inhibition rate, velvetleaf; assay type: in vivo, Abutilon theophrasti MEDIC.; details: 250 g/ha active ingredient, observed on 19th to 24th day
Text: as §1

[7] = test system: redroot pigweed (Amaranthus retroflexus L.); assay: Test Example 1: foliar treatment, growth inhibition rate, redroot pigweed; assay type: in vivo; details: visually observed 17th to 23rd day after application
Text: as §2, §3

[8] = test system: corn (Zea mays L.); assay: Test Example 1: foliar treatment, growth inhibition rate, corn; assay type: in vivo; details: visually observed 17th to 23rd day after application
Text: as §2, §3

[9] = test system: rice (Oryza sativa L.); assay: Test Example 1: foliar treatment, growth inhibition rate, rice; assay type: in vivo; details: visually observed 17th to 23rd day after application
Text: as §2, §3

[10] = test system: crabgrass (Digitaria sanguinalis L.); assay: Test Example 1: foliar treatment, growth inhibition rate, crabgrass; assay type: in vivo; details: visually observed 17th to 23rd day after application
Text: as §2, §3

[11] = test system: prickly sida (Sida spinosa L.); assay: Test Example 1: foliar treatment, growth inhibition rate, prickly sida; assay type: in vivo; details: visually observed 17th to 23rd day after application
Text: as §2, §3

[12] = test system: barnyardgrass (Echinochloa crus-galli L.); assay: Test Example 1: foliar treatment, growth inhibition rate, barnyardgrass; assay type: in vivo; details: visually observed 17th to 23rd day after application
Text: as §2, §3

[13] = test system: soybean (Glycine max Merr.); assay: Test Example 1: foliar treatment, growth inhibition rate, soybean; assay type: in vivo; details: visually observed 17th to 23rd day after application
Text: as §2, §3

[14] = test system: velvetleaf (Abutilon theophrasti MEDIC.); assay: Test Example 1: foliar treatment, growth inhibition rate, velvetleaf; assay type: in vivo; details: visually observed 17th to 23rd day after application
Text: as §2, §3

Compound	Growth inhibition rate (%) Wheat ([2]; 31 g/ha active ingredient) [%]	Growth inhibition rate (%) Greenfoxtail ([3]; 31 g/ha active ingredient) [%]	Growth inhibition rate (%) redroot pigweed ([7]; 31 g/ha active ingredient) [%]	Growth inhibition rate (%) Corn ([8]; 31 g/ha active ingredient) [%]	Growth inhibition rate (%) Rice ([9]; 31 g/ha active ingredient) [%]	Growth inhibition rate (%) Crabgrass ([10]; 31 g/ha active ingredient) [%]	Growth inhibition rate (%) Prickly sida ([11]; 31 g/ha active ingredient) [%]	Growth inhibition rate (%) Barnyardgrass ([12]; 31 g/ha active ingredient) [%]	Growth inhibition rate (%) Soybean ([13]; 31 g/ha active ingredient) [%]	Growth inhibition rate (%) Velvetleaf ([14]; 31 g/ha active ingredient) [%]	Growth inhibition rate (%) Wheat ([2]; 63 g/ha active ingredient) [%]	Growth inhibition rate (%) Greenfoxtail ([3]; 63 g/ha active ingredient) [%]	Growth inhibition rate (%) redroot pigweed ([7]; 63 g/ha active ingredient) [%]	Growth inhibition rate (%) Corn ([8]; 63 g/ha active ingredient) [%]	Growth inhibition rate (%) Rice ([9]; 63 g/ha active ingredient) [%]	Growth inhibition rate (%) Crabgrass ([10]; 63 g/ha active ingredient) [%]	Growth inhibition rate (%) Prickly sida ([11]; 63 g/ha active ingredient) [%]	Growth inhibition rate (%) Barnyardgrass ([12]; 63 g/ha active ingredient) [%]	Growth inhibition rate (%) Soybean ([13]; 63 g/ha active ingredient) [%]	Growth inhibition rate (%) Velvetleaf ([14]; 63 g/ha active ingredient) [%]	further results
CCSC(=O)Oc1c(C(=O)c2ccc(S(C)(=O)=O)c(CS(C)(=O)=O)c2C)cnn1C [compound 72]	0	70	60	10	50	50	60	80	70	60											Growth inhibition rate (%) Crabgrass [1]: 0%; Growth inhibition rate (%) redroot pigweed [4]: 50%; Growth inhibition rate (%) Corn [5]: 0%; Growth inhibition rate (%) Velvetleaf [6]: 30%
COCCOc1c(S(C)(=O)=O)ccc(C(=O)c2cnn(C)c2OC(=O)SC(C)(C)C)c1C [compound 241]		100	100	0	90	98	90	100	100	100											
CCC(C)SC(=O)Oc1c(C(=O)c2ccc(S(C)(=O)=O)c(OCCOC)c2C)cnn1C (stereo not shown) [compound 239]		100		0	85	100	80	98	100	100											
CCSC(=O)Oc1c(C(=O)c2ccc(S(C)(=O)=O)c(C=CC#N)c2C)cnn1C [compound 229]											50	100	100	60	95	100	98	100	98	100	
COCc1c(S(C)(=O)=O)ccc(C(=O)c2cnn(C)c2OC(=O)SC)c1Cl [compound 74]	20	80	100	40	95	98	70	100	98	100											Growth inhibition rate (%) Crabgrass [1]: 90%; Growth inhibition rate (%) redroot pigweed [4]: 95%; Growth inhibition rate (%) Corn [5]: 0%; Growth inhibition rate (%) Velvetleaf [6]: 70%
CCOCc1c(S(C)(=O)=O)ccc(C(=O)c2cnn(C)c2OC(=O)SCC)c1C [compound 73]	0	100	100	30	95	100	70	100	98	98											Growth inhibition rate (%) Crabgrass [1]: 100%; Growth inhibition rate (%) redroot pigweed [4]: 100%; Growth inhibition rate (%) Corn [5]: 0%; Growth inhibition rate (%) Velvetleaf [6]: 100%
CCSC(=O)Oc1c(C(=O)c2ccc(S(C)(=O)=O)c(CN(CC#N)C(=O)SCC)c2C)cnn1C [compound 228]											0	40	40	0	0	60	40	98	80	70	
CCSC(=O)Oc1c(C(=O)c2ccc(S(C)(=O)=O)c(CCC#N)c2C)cnn1C [compound 230]											40	100	100	0	95	100	80	100	100	95	
C=C(C)CSC(=O)Oc1c(C(=O)c2ccc(S(C)(=O)=O)c(C(=O)OC)c2C)cnn1CC [compound 101]	10	100	100	30	98	100	70	100	90	98											
CCSC(=O)Oc1c(C(=O)c2ccc(S(C)(=O)=O)c(CC(N)=S)c2C)cnn1C [compound 232]											0	95		0	95	95	70	90	90	90	
CCSC(=O)Oc1c(C(=O)c2ccc(S(C)(=O)=O)c(CCCOC)c2C)cnn1C [compound 226]	0	95	95	0	100	95	70	100	100	80											
CCSC(=O)Oc1c(C(=O)c2ccc(S(C)(=O)=O)c(OCC3OCCO3)c2Cl)cnn1CC [compound 227]											0	100	100	0	30	100	60	100	95	100	
CCSC(=O)Oc1c(C(=O)c2ccc(S(C)(=O)=O)c(Cl)c2C)cnn1CC [compound 71]	10	60	70	0	60	40	60	70	60	60											
CCSC(=O)Oc1c(C(=O)c2ccc(S(C)(=O)=O)c(CC3OCCO3)c2C)cnn1C [compound 238]											10	98	100	0	90	98	98	100	98	100	
